The numbers were not newly measured in US7988985B2, “Pest repellent compositions and methods” (priority 2008, dated 2011), which cites them from elsewhere.

Series [1] has as its system biting-insect. The conditions noted are these: Low-strength formulations containing 12.5% DEET.
In series [2] the test system is blackflies (Simulium spp.). Particulars: High-strength formulations containing up to 100% DEET.
Series [3] deals with mosquitoes (e.g., Anopheles, Culex pipiens, and Aeges aegypti). The conditions noted are these: High-strength formulations containing up to 100% DEET, 95%+ effective.

On to `CCN(CC)C(=O)c1cccc(C)c1` [DEET, N,N,-diethyl-m-toluamide], for which the “effective (repellent effectiveness)” value in series [1] is reported as 60-75%; in series [2] it was at least 95%. The figures for the duration of effectiveness result in series [2] (95%+ effective) and in series [3] were “over 4 hours” and 10 to 12 h, respectively.
